Laboratory results published in ChEMBL document CHEMBL1201862, “PubChem BioAssay data set” (2004).
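All cell lines were grown in 96-well plates and treated with compound for 48 hours. GI50 is the concentration that inhibits growth by half.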 Active and inactive are the calls of the source. Rule as the data show it: active = GI50 up to about 1.1 µM and inactive = higher.

Tests used:
Test in all cases: NCI anticancer screen, dose series, 48 h
IGROV-1 = test system: IGROV-1
MDA-N = test system: MDA-N
SF-268 = test system: SF-268
HT-29 = test system: HT-29
SF-295 = test system: SF-295
HCC 2998 = test system: HCC 2998
SF-539 = test system: SF-539
NCI-H522 = test system: NCI-H522
RXF 393 = test system: RXF 393
UACC-62 = test system: UACC-62
SNB-75 = test system: SNB-75
MCF7 = test system: MCF7
HCT-15 = test system: HCT-15
CAKI-1 = test system: CAKI-1
HL-60 = test system: HL-60
DU-145 = test system: DU-145
U-251 = test system: U-251
PC-3 = test system: PC-3
NCI/ADR-RES = test system: NCI/ADR-RES

Compound | GI50 (IGROV-1) | GI50 (MDA-N) | GI50 (SF-268) | GI50 (HT-29) | GI50 (SF-295) | GI50 (HCC 2998) | GI50 (SF-539) | GI50 (NCI-H522) | GI50 (RXF 393) | GI50 (UACC-62) | GI50 (SNB-75) | GI50 (MCF7) | GI50 (HCT-15) [µM] | GI50 (CAKI-1) | GI50 (HL-60) | GI50 (DU-145) | GI50 (U-251) | GI50 (PC-3) | GI50 (NCI/ADR-RES)
COc1cc2c(c(OC)c1OC)-c1c(cc3c(c1OC)OCO3)CC(C)C(C)(O)C2OC(=O)c1ccccc1 (stereo not given) | 38.3 µM (inactive) | 60.7 µM (inactive) | 53.5 µM (inactive) | 25.8 µM (inactive) | 39.4 µM (inactive) | 22.9 µM (inactive) | > 100 µM (inactive) | 24.6 µM (inactive) | 27.9 µM (inactive) | 56 µM (inactive) | 41 µM (inactive) | 44.9 µM (inactive) | 33.2 | 33 µM (inactive) | 19.5 µM (inactive) | 69.8 µM (inactive) | 39.9 µM (inactive) | 26.6 µM (inactive) | –
CC1C(c2ccc(F)cc2)c2cc3c(cc2OC1N1CCCC1)OCO3 (stereo not given) | 42.2 µM (inactive) | 66.4 µM (inactive) | 36.8 µM (inactive) | 47.8 µM (inactive) | 27.6 µM (inactive) | 38.6 µM (inactive) | 30.4 µM (inactive) | 29 µM (inactive) | – | 55 µM (inactive) | 22.3 µM (inactive) | 45.4 µM (inactive) | 34.4 | 16.7 µM (inactive) | – | 61.9 µM (inactive) | – | 44.2 µM (inactive) | 43.6 µM (inactive)
CN1CC2CN(Cc3ccccc3)CCN2c2cccnc21 (stereo not given) | 52.7 µM (inactive) | 38.6 µM (inactive) | 54.3 µM (inactive) | 29.1 µM (inactive) | 89.5 µM (inactive) | – | 62.8 µM (inactive) | 28.8 µM (inactive) | > 100 µM (inactive) | 68.4 µM (inactive) | 41.3 µM (inactive) | 39.9 µM (inactive) | 28.6 | 93.1 µM (inactive) | 29 µM (inactive) | – | 42.8 µM (inactive) | 45.9 µM (inactive) | 32.1 µM (inactive)
CCCN1C(=O)/C(=C\c2ccc(OC)c(OC)c2)S/C1=N\c1ccccc1 | > 100 µM (inactive) | > 100 µM (inactive) | 38.6 µM (inactive) | > 100 µM (inactive) | 24.2 µM (inactive) | > 100 µM (inactive) | 24.7 µM (inactive) | > 100 µM (inactive) | – | > 100 µM (inactive) | – | > 100 µM (inactive) | > 100 | > 100 µM (inactive) | > 100 µM (inactive) | – | 27.8 µM (inactive) | > 100 µM (inactive) | > 100 µM (inactive)
COc1cc2c(cc1C[C@H]1[C@@H]3C[C@H]4c5c(c6ccccc6n5C)C[C@@H]([C@@H]3CO[C@]1(C)OC(C)=O)N4C)c1c(n2C)C2C[C@H]3C(C(C)=O)=COC[C@H]3[C@H](C1)N2C | 7.24 µM (inactive) | – | 2.69 µM (inactive) | 1.53 µM (inactive) | 4.67 µM (inactive) | 0.0102 µM (active) | 2.84 µM (inactive) | – | 2.58 µM (inactive) | 5.11 µM (inactive) | – | 7.48 µM (inactive) | 3.13 | 2.23 µM (inactive) | – | 6.38 µM (inactive) | 5.57 µM (inactive) | 0.462 µM (active) | 2.93 µM (inactive)
Cc1cc(N(CCC#N)CCC#N)ccc1C(/N=N\c1ccc(C(=O)O)cc1)=N\NC(=O)c1cc(Cl)ccc1O | 24.7 µM (inactive) | – | 19.2 µM (inactive) | > 100 µM (inactive) | 12.4 µM (inactive) | > 100 µM (inactive) | > 10 µM (inactive) | 17.1 µM (inactive) | 25.4 µM (inactive) | 31.1 µM (inactive) | 22.6 µM (inactive) | 32.4 µM (inactive) | > 100 | 46.6 µM (inactive) | – | 64 µM (inactive) | 24.9 µM (inactive) | 61 µM (inactive) | 37.6 µM (inactive)
CN(C(=O)c1ccncc1)c1ccccc1 | > 100 µM (inactive) | – | > 100 µM (inactive) | > 100 µM (inactive) | > 100 µM (inactive) | > 100 µM (inactive) | > 100 µM (inactive) | > 100 µM (inactive) | > 100 µM (inactive) | > 100 µM (inactive) | > 100 µM (inactive) | > 100 µM (inactive) | > 100 | > 100 µM (inactive) | > 100 µM (inactive) | > 100 µM (inactive) | > 100 µM (inactive) | > 100 µM (inactive) | > 100 µM (inactive)
COc1ccc2[nH]c3c(c2c1)CCc1c(OC)cccc1-3 | > 100 µM (inactive) | > 100 µM (inactive) | > 100 µM (inactive) | > 100 µM (inactive) | > 100 µM (inactive) | > 100 µM (inactive) | – | 87.1 µM (inactive) | – | > 100 µM (inactive) | 70 µM (inactive) | > 100 µM (inactive) | > 100 | > 100 µM (inactive) | – | > 100 µM (inactive) | 28.8 µM (inactive) | > 100 µM (inactive) | > 100 µM (inactive)
[N-]=[N+]=Nc1c(-c2ccccc2)c(Cl)nc2ccccc12 | 39.5 µM (inactive) | 27 µM (inactive) | 48.1 µM (inactive) | 19.7 µM (inactive) | 22.8 µM (inactive) | 44.2 µM (inactive) | 43.8 µM (inactive) | 18.1 µM (inactive) | 51.6 µM (inactive) | – | 29.9 µM (inactive) | – | 28.4 | 31.8 µM (inactive) | 56.2 µM (inactive) | – | 48 µM (inactive) | 26.2 µM (inactive) | 34.8 µM (inactive)
Nc1nc(CCl)nc(N2CCOCC2)n1 | 14.3 µM (inactive) | – | 33.7 µM (inactive) | 32.7 µM (inactive) | 29.8 µM (inactive) | 17.7 µM (inactive) | 22.8 µM (inactive) | 3.4 µM (inactive) | 36.6 µM (inactive) | 15.8 µM (inactive) | 33.5 µM (inactive) | 28.6 µM (inactive) | 16 | 16.5 µM (inactive) | 13.9 µM (inactive) | 38.4 µM (inactive) | 22.4 µM (inactive) | 72.1 µM (inactive) | 29.4 µM (inactive)
COc1ccc(N2C(=O)C3c4[nH]c5ccc(F)cc5c4C4CCC(c5ccccc5)CC4C3C2=O)cc1 (stereo not given) | 20.1 µM (inactive) | 27.4 µM (inactive) | 5.81 µM (inactive) | 16 µM (inactive) | 31 µM (inactive) | 39.9 µM (inactive) | – | 13 µM (inactive) | – | 11.9 µM (inactive) | 12.5 µM (inactive) | 18.7 µM (inactive) | 19.7 | 19.8 µM (inactive) | – | 66.2 µM (inactive) | 9.98 µM (inactive) | 14.2 µM (inactive) | 45.9 µM (inactive)
OC1(c2cc3ccccc3s2)CCCCC1 | 87.5 µM (inactive) | 38.4 µM (inactive) | 29.2 µM (inactive) | 23.7 µM (inactive) | 37.9 µM (inactive) | 76 µM (inactive) | > 100 µM (inactive) | 28.1 µM (inactive) | 39.4 µM (inactive) | 69.7 µM (inactive) | 35.1 µM (inactive) | 36.6 µM (inactive) | 39.1 | > 100 µM (inactive) | 37.7 µM (inactive) | 63.2 µM (inactive) | 49.5 µM (inactive) | – | 47.2 µM (inactive)
Oc1cc(-c2cccc(C(F)(F)F)c2)nc2cc3c(cc12)OCO3 | 3.29 µM (inactive) | – | – | 13.7 µM (inactive) | – | 3.44 µM (inactive) | 1.04 µM (active) | 0.536 µM (active) | – | 1.51 µM (inactive) | 1.06 µM (active) | 2.23 µM (inactive) | 1.38 | 10.9 µM (inactive) | 0.246 µM (active) | – | 2.55 µM (inactive) | 0.365 µM (active) | 1.04 µM (active)
[N-]=[N+]=CC(=O)OC1CCOCC1 | > 100 µM (inactive) | > 100 µM (inactive) | > 100 µM (inactive) | > 100 µM (inactive) | > 100 µM (inactive) | > 100 µM (inactive) | – | > 100 µM (inactive) | > 100 µM (inactive) | > 100 µM (inactive) | – | > 100 µM (inactive) | > 100 | > 100 µM (inactive) | > 100 µM (inactive) | > 100 µM (inactive) | > 100 µM (inactive) | > 100 µM (inactive) | –
C[C@H]1CC[C@@]2(OC1)O[C@H]1C[C@H]3[C@@H]4CC[C@@H]5C[C@@H](OC6OC(CO)C(O)C(O)C6OC6OC(CO)C(O)C(O)C6O)CC[C@]5(C)[C@H]4CC[C@]3(C)[C@H]1[C@@H]2C (stereo not given in full) | 2.3 µM (inactive) | – | 2.3 µM (inactive) | 2 µM (inactive) | 2.22 µM (inactive) | 2.02 µM (inactive) | 2.03 µM (inactive) | 2.71 µM (inactive) | – | 2.4 µM (inactive) | 2.24 µM (inactive) | 2.1 µM (inactive) | 1.99 | 1.8 µM (inactive) | 0.889 µM (active) | 2.34 µM (inactive) | 2.26 µM (inactive) | 2.13 µM (inactive) | 2.99 µM (inactive)
Cc1cccc2c1Oc1ncccc1C2NC(=O)CN(C)C (stereo not given) | > 10 µM (inactive) | – | > 10 µM (inactive) | > 10 µM (inactive) | > 10 µM (inactive) | > 10 µM (inactive) | > 10 µM (inactive) | > 10 µM (inactive) | – | > 10 µM (inactive) | 7.78 µM (inactive) | > 10 µM (inactive) | > 10 | – | > 10 µM (inactive) | – | > 10 µM (inactive) | > 10 µM (inactive) | > 10 µM (inactive)
COC(=O)[C@H](CCSC)NC(=O)c1ccc(CNC(=O)/C=C/c2cccc(Oc3ccccc3)c2)cc1 | 27.5 µM (inactive) | – | > 59.2 µM (inactive) | > 100 µM (inactive) | > 78.5 µM (inactive) | 28.5 µM (inactive) | > 74.3 µM (inactive) | 25.8 µM (inactive) | 16.7 µM (inactive) | 18.2 µM (inactive) | 22.4 µM (inactive) | 38.6 µM (inactive) | > 62.8 | > 46.5 µM (inactive) | – | > 100 µM (inactive) | > 100 µM (inactive) | > 75 µM (inactive) | 43 µM (inactive)
